The values that follow come from PMC10408038 (Journal of medicinal chemistry, 2022).

The test system of data set [1] is NCI-H522 cells. Kind of data set: Cell viability assay. The note with it: for Fold Change: ratio of IC50 (HCT-116)/ IC50 (NCI-H522); for fold increase of IC50 in the presence of Liproxstatin-1: NCI-H522, Liproxstatin-1 (0.25 μM); for IC50: cell line not given.
The subject of data set [2] is NCI-H522 cells. Kind of data set: C11-BODIPY lipid peroxidation assay. In kind it is cell-based. The note with it: 3 h or 6 h treatment.
Data set [3] relates to NCI-H522 cells. Kind of data set: Liproxstatin-1 rescue experiments. In kind it is cell-based. Particulars: for rescue of cytotoxicity by Liproxstatin-1: compound at 2–3 times the IC50, Liproxstatin-1 0.25 μM.
Data set [4] relates to NCI-H522 cells. Kind of data set: In-gel fluorescence labeling competition with probe. Particulars: competitor 20 μM. In kind it is cell-based.
Data set [5] in a line: NMR kinetic study of thiol addition. Format: physicochemical. Particulars: DMSO-d6.
Data set [6] deals with NCI-H522 cells. In words: Incubation time50. Format: cell-based. Particulars: RSL3 0.5 μM, 45 2 μM.
The target of a further data set is T1, GPX4 (Homo sapiens, UniProt P36969).
T1 sequence (P36969 28-197 limits assumed): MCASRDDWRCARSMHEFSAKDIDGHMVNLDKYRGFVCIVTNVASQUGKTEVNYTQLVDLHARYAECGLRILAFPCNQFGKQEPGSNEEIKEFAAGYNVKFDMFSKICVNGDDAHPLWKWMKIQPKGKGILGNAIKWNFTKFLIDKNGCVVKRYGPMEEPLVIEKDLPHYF
Kind of data set: Pulldown with Biotin-TAMRA and western blot analysis, GPX4. In kind it is cell-based. The note with it: NCI-H522; probe 10 μM; western blot. (In general: A western blot detects proteins with antibodies after separation by electrophoresis.)

For another data set, the target named is T2, GSTO1 (Homo sapiens, UniProt P78417).
T2 sequence (P78417 1-241): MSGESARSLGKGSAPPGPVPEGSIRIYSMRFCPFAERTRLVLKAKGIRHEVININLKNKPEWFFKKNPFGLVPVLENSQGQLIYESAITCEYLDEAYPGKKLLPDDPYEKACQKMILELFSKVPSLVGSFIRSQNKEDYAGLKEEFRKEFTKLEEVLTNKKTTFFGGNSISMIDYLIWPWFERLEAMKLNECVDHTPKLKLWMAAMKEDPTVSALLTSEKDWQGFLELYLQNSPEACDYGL
Kind of data set: Pulldown with Biotin-TAMRA and western blot analysis, GSTO1. Format: cell-based. The note with it: NCI-H522; probe 10 μM; western blot.

The next data set concerns the target T3, TXRD1 (Homo sapiens, UniProt Q16881).
T3 sequence (Q16881 151-649 limits assumed): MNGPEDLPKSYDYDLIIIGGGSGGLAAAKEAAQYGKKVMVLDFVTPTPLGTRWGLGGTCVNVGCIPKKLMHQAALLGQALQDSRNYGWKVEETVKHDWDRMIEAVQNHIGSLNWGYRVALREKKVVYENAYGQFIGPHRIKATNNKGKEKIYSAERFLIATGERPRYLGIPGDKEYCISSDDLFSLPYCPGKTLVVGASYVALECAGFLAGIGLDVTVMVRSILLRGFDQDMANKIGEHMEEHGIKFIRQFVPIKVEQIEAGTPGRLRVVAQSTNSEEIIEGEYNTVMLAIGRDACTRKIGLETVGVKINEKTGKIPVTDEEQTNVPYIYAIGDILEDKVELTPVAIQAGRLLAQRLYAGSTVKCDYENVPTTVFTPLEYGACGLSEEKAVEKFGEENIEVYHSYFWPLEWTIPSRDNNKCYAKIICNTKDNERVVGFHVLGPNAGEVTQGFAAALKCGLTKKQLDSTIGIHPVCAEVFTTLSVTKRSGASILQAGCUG
In words: Pulldown with Biotin-TAMRA and western blot analysis, TXRD1. Format: cell-based. Particulars: NCI-H522; western blot.

The mark [7] stands for this setting: in the presence of DABCO, N-Boc-cysteine methyl ester 10 equiv.

Consider “2-ethynyl-N-(4-methoxyphenyl)thiazole-5-carboxamide [Compound 8]”, for which, in the data set with NCI-H522 cells [1], the “Fold Change” value came to 12.52.
Still for that read-out and setting: under “2-ethynyl-N-phenylthiazole-5-carboxamide [Compound 9]” stands 7.39.
For `C#Cc1nc(C(=O)N2CCN(C(c3ccc(Cl)cc3)c3ccc(Cl)cc3)CC2)cs1` [BCP-T.A, (4-(bis(4-chlorophenyl)methyl)piperazin-1-yl)(2-ethynylthiazol-4-yl)methanone], in the data set with NCI-H522 cells [2], the “C11-Bodipy oxidation (lipid peroxide levels) versus DMSO” value is given as “increases lipid peroxides”. Also, the “rescue of cytotoxicity by Liproxstatin-1” value with NCI-H522 cells [3] was “rescues cells”. In the data set with NCI-H522 cells [1], the “fold increase of IC50 in the presence of Liproxstatin-1” value is “approximately 500 fold”.
Regarding `C#CC1=Nc2ccccc2C(C)(C)O1` [Compound 2, 2-ethynyl-4,4-dimethyl-4H-benzo[d][1,3]oxazine, reference compound], the “rescue of cytotoxicity by Liproxstatin-1” value in the data set on NCI-H522 cells [3] is “significant rescue”. Besides, in the data set on NCI-H522 cells [4], the “competition with probe (65) labeling” value is listed as “high competition”.
Take `C#Cc1nc(C(=O)OCC)cs1` [Compound 22, ethyl 2-ethynylthiazole-4-carboxylate]: the entries for the “half-life (t1/2) of thiol addition” value in data set [5] (in the absence of DABCO) and in data set [5] (setting [7]) were 4.43 h and 0.315 h, respectively. In the data set on NCI-H522 cells [3] ((22) 10 μM, Liproxstatin-1 0.25 μM), the “cells rescued by Liproxstatin-1” value stood at 100%.
Regarding `Cn1c(I)nc2ccccc21` [Compound 31, 2-iodo-1-methyl-1H-benzo[d]imidazole], the “C11-Bodipy oxidation (lipid peroxide levels) versus DMSO” value in the data set on NCI-H522 cells [2] is “indistinguishable from the corresponding DMSO treatment”. The “rescue of cytotoxicity by Liproxstatin-1” value in the data set on NCI-H522 cells [3] is “kill NCI-H522 cells at the same rates both in the absence and presence of Liproxstatin-1”.
Turning to `C=Cc1nc2ccccc2n1C` [Compound 39, 1-methyl-2-vinyl-1H-benzo[d]imidazole], in the data set with NCI-H522 cells [2], the “C11-Bodipy oxidation (lipid peroxide levels) versus DMSO” value is given as “marginally increase C11-Bodipy oxidation”. The “rescue of cytotoxicity by Liproxstatin-1” value in the data set with NCI-H522 cells [3] is “kill NCI-H522 cells at the same rates both in the absence and presence of Liproxstatin-1”.
On to `C=Cc1nc2ccccc2[se]1` [Compound 42, 2-vinylbenzo[d][1,3]selenazole], for which, in the data set with NCI-H522 cells [2], the “C11-Bodipy oxidation (lipid peroxide levels) versus DMSO” value is recorded as “marginally increase C11-Bodipy oxidation”.
In the case of `C#Cc1nc2ccccc2s1` [Compound 45, 2-ethynylbenzo[d]thiazole], the “half-life (t1/2) of thiol addition” value in [5] (in the absence of DABCO) was over 6 h; in [5] (setting [7]) it was under 0.083 h. In addition, the “incubation time after which cells cannot be rescued by washing off the drug” value with NCI-H522 cells [6] was in the range of 1 to 2 h. Moreover, the “competition with probe (65) labeling” value in the data set with NCI-H522 cells [4] was “high competition”.
Turning to `C#CCNC1CCC(c2csc(C#C)n2)=C1C` (stereo not drawn) [Compound 64, 3-(2-ethynylthiazol-4-yl)-2-methyl-N-(prop-2-yn-1-yl)cyclopent-2-en-1-amine], in the data set on NCI-H522 cells [2], the “C11-Bodipy oxidation (lipid peroxide levels) versus DMSO” value is given as “increased levels of lipid peroxides”. Moreover, in the data set on NCI-H522 cells [3], the “rescue of cytotoxicity by Liproxstatin-1” value is “significant rescue”.
In the case of `C#CCNC(=O)c1csc(C#C)n1` [Compound 65, 2-ethynyl-N-(prop-2-yn-1-yl)thiazole-4-carboxamide], the “C11-Bodipy oxidation (lipid peroxide levels) versus DMSO” value with NCI-H522 cells [2] is given as “increased levels of lipid peroxides”. The “enrichment of GPX4 in pulldown” value at GPX4 is “selectively enriched”. The “enrichment of GSTO1 in pulldown” value on GSTO1 is “selectively enriched”. In the data set on NCI-H522 cells [3], the “rescue of cytotoxicity by Liproxstatin-1” value is recorded as “significant rescue”.
`C#CCNC(=O)c1csc(C#Cc2ccccc2)n1` [Compound 66, 2-(phenylethynyl)-N-(prop-2-yn-1-yl)thiazole-4-carboxamide]: at TXRD1, the “labeling of TXRD1 in pulldown” value was “has the ability to label this protein”.
As to `Cc1onc(C(=O)N2CCN(C(c3ccc(Cl)cc3)c3ccc(Cl)cc3)CC2)c1[N+](=O)[O-]` [ML-210, (4-(bis(4-chlorophenyl)methyl)piperazin-1-yl)(5-methyl-4-nitroisoxazol-3-yl)methanone, reference compound], the “fold increase of IC50 in the presence of Liproxstatin-1” value in the data set with NCI-H522 cells [1] was “about 800 fold”.
`COC(=O)c1ccc([C@H]2c3[nH]c4ccccc4c3CC(C(=O)OC)N2C(=O)CCl)cc1` (stereo partly drawn) [RSL3, reference compound]: in the data set with NCI-H522 cells [6], the “incubation time after which cells cannot be rescued by washing off the drug” value was 1 to 2 h.
For the compound `CCOc1ccccc1-n1c(C(C)N2CCN(C(=O)COc3ccc(Cl)cc3)CC2)nc2ccccc2c1=O` (stereo not drawn) [erastin], the “competition with probe (65) labeling” value in the data set on NCI-H522 cells [4] was “no competition was observed”.
For the compound “(4-ethylpiperazin-1-yl)(2-ethynylthiazol-5-yl)methanone [Compound 75]”, the IC50 (usually the point on the concentration scale where inhibition reaches its midpoint) with NCI-H522 cells [1] (scheme 5 analogs) is over 1000 nM.
The compound “(E)-1-(4-(bis(4-chlorophenyl)methyl)piperazin-1-yl)-3-(2-ethynylthiazol-5-yl)prop-2-en-1-one [Compound 78]” came in with an IC50 with NCI-H522 cells [1] (scheme 5D) of 6 nM.
For “(E)-N-(4-chlorophenyl)-3-(2-ethynylthiazol-5-yl)acrylamide [Compound 16]”, the “Fold Change” value in the data set on NCI-H522 cells [1] turned out to be 62.64.
“N-(4-chlorophenyl)-2-ethynylthiazole-5-carboxamide [Compound 10]”: the “Fold Change” value in the data set on NCI-H522 cells [1] turned out to be 29.40.
